Earlier results, collected in patent US10280177B2 (ALFASIGMA S.P.A., priority 2006, dated 2019).

Details: in vivo

SMILES: CO[C@H]1/C=C/O[C@@]2(C)Oc3c(C)c(O)c4c(O)c(c5c(nc6cc(C)ccn65)c4c3C2=O)NC(=O)/C(C)=C\C=C\[C@H](C)[C@H](O)[C@@H](C)[C@@H](O)[C@@H](C)[C@H](OC(C)=O)[C@@H]1C [polymorph ?, rifaximin]
- reduction of bioavailability compared to the form δ: twenty
